From US20150306110A1, “COMPOSITIONS AND METHODS FOR TREATMENT OF INFLAMMATION AND HYPERKERATOTIC LESIONS” (Novelix Pharmaceuticals, Inc., priority 2008, published 2015)
Converted amounts (≈) assume the structure as drawn.

Key:
[1] = test system: hyperkeratotic palpable lesion with inflammatory components; test: Topical treatment of human hyperkeratotic lesions with inflammatory components; type: in vivo; settings: 1% topical solution
Experimental: A 1% topical solution of NVX-207 (20% ethanol, 20% Tween® 80 and 80% water) was applied to human skin to treat a treatment resistant hyperkeratotic palpable lesion with inflammatory components. The NVX-207 was administered once a day on days 1, 2, 3, 10, 11, 12 and 13. Significant improvement (better than 80% reduction) was observed after one day, and additional improvement was observed after a total of six additional treatments applied within 14 days. […] A second identical lesion was treated with the same formulation twice a day for 2 days, and disappeared.

Mastocytoma-C2 = test: Cell growth/survival, canine mastocytoma C2 cells; type: cell-based; settings: Canis lupus familiaris
Experimental: (§1) Melanoma cell lines used in this study were maintained in Dulbecco's modified Eagle medium (DMEM with 4500 mg/l glucose) supplemented with 10% FCS from Gibco BRL (Life Technologies, Berlin, Germany). The canine mastocytoma cell line C2 (DeVinney et al, Am. J. Respir. Cell Mol. Biol. 3:413-20, 1990) was used in this study, along with additional human cell lines: RD-ES and TC-71 (human Ewing's sarcoma), SAOS2 (human osteosarcoma), HT-1080 (human fibrosarcoma), Caco-2 (human colon adenocarcinoma), A549 (human lung adenocarcinoma), Hep-G2 and Hep-3B (human hepatocellular carcinoma), SK-N-DZ and SK-N-FI (human embryonal neuroblastoma), HTB9 (human bladder cancer), MDA-468 and MCF-7 (human breast cancer) and SW872 liposarcoma. All breast cancer cells were routinely cultured in DMEM/F-12 or in DMEM alone supplemented with 10% FCS at 37° C. in a humidified 5% CO2 atmosphere. RD-ES and TC-71 sarcoma cell lines were maintained in RPMI 1640 (Biochrom KG, Berlin, Germany) containing 10% FCS at 37° C. in a humidified 5% CO2 atmosphere. […]
(§2) Briefly, cells were maintained in standard medium, harvested, and plated at equal densities (750,000 cells in 5 cm tissue culture dishes). […] For the assessment of cell growth, the number of surviving cells was determined using an automated cell counter from Beckman Coulter GmbH (Krefeld, Germany). […]

[2] = test system: melanoma, liposarcoma, colon-and lung cancer cells; test: Cell growth in select cancer cell lines, NVX-207 compared to betulinic acid (FIGS. 1A-D); type: cell-based; settings: various cancer and non-cancer cells, human and animal cell lines
Experimental: FIGS. 1A-D show cell survival in select human cancer cell lines: 518A2 melanoma (FIG. 1A), SW872 liposarcoma (FIG. 1B), Caco-2 colon carcinoma (FIG. 1C) and A549 lung carcinoma (FIG. 1D). Cell survival as a percentage of untreated controls (y-axis) in response to NVX-207 (grey lines) or betulinic acid (black lines) in μg/ml (x-axis) are shown.
as §1, with “liposarcoma.” for “liposarcoma. All breast cancer cells were routinely cultured in DMEM/F-12 or in DMEM alone supplemented with 10% FCS at 37° C. in a humidified 5% CO2 atmosphere. RD-ES and TC-71 sarcoma cell lines were maintained in RPMI 1640 (Biochrom KG, Berlin, Germany) containing 10% FCS at 37° C. in a humidified 5% CO2 atmosphere.”
as §2

SW872 (liposarcoma) = test: Cell growth/survival, SW872 liposarcoma cells; type: cell-based; settings: Homo sapiens, TP53 mut.
Experimental: as §1, §2

[3] = Solubility in ethanol, DMSO and ethanol-Tween 80; type: physicochemical; settings: for solubility: organic solvent or mixture
Experimental: After solution in ethanol or DMSO, or chemically similar solvents, NVX-207 or a related compound may be formulated with co-solvents such as Cremophor EL® and/or Tween® 80, in a similar manner described for taxanes. For example, the formulation approach for paclitaxel (TAXOL®; Bristol-Myers Squibb) was to use 50% Cremophor EL® and 50% ethanol. The pharmaceutical formulation of paclitaxel contains 30 mg paclitaxel dissolved in 5 ml of this (1:1, v/v) mixture. These and equivalent formulations allow for the application of NVX-207 in sufficiently high concentrations not only for topical, but also for intralesional and systemic (intravenous infusion) use. Solubility of NVX-207 in ethanol was determined to be at least 300 mg/ml and reached 250 mg/ml in DMSO. […] The solubility of NVX-207 in ethanol-Tween® 80 was evaluated. Two-hundred mg of NVX-207 was dissolved in 1 ml ethanol. […] Then an equal volume of Tween® 80 was added, to achieve a stock solution of 100 mg/ml of NVX-207. The stock solution was clear and yellow. Each stock solution was diluted first 1:1 (50 mg/ml NVX-207), then 1:5 (20 mg/ml NVX-207) and finally 1:10 (10 mg/ml NVX-207) with water. […] NVX-207 therefore has, apart from its higher activity, significant advantages over betulinic acid, that include higher activity, better solubility in pharmaceutically suitable solvents, and better handling.

518A2 = test: Cell growth/survival, 518A2 melanoma cells; type: cell-based; settings: Homo sapiens, TP53 mut.
Experimental: as §1, §2

TC-71 (Ewing's sarcoma) = test: Cell growth/survival, TC-71 Ewing's sarcoma cells; type: cell-based; settings: Homo sapiens, TP53 mut.
Experimental: as §1, §2

SK-N-FI = test: Cell growth/survival, SK-N-FI neuronal cancer cells; type: cell-based; settings: Homo sapiens, TP53 mut.
Experimental: as §1, §2

Hep-G2 = test: Cell growth/survival, Hep-G2 hepatocellular carcinoma cells; type: cell-based; settings: Homo sapiens, HepG2, TP53 neg.
Experimental: as §1, §2

Soft tissue sarcoma = test: Intra-tumoral NVX-207 in canine patient, soft tissue sarcoma; settings: Patient #1, 11, F; 48 treatment cycles

C=C(C)[C@@H]1CC[C@]2(C(=O)OCC(N)(CO)CO)CC[C@]3(C)[C@H](CC[C@@H]4[C@@]5(C)CC[C@H](OC(C)=O)C(C)(C)[C@@H]5CC[C@]43C)[C@@H]12 [NVX-207, 3-O-acetylbetulinic acid-2-amino-3-hydroxy-2-hydroxymethylpropyl ester]
Deleterious (toxic) effects on the treated areas (inflammation, redness, swelling) [1]: No deleterious (toxic) effects | Improvement (reduction) of lesion ([1]; after one day): > 80% | Side effects ([1]; first lesion): No reddening, inflammation or any other side effects were observed | IC50 (Mastocytoma-C2): 3 µM | Efficacy on a molar basis in promoting cell death compared to betulinic acid [2]: up to 5 fold | IC50 (SW872 (liposarcoma)): 1.8 µM | Increase in solubility in DMSO compared to betulinic acid ([3]; DMSO): over 20 fold | Increase in solubility in ethanol compared to betulinic acid ([3]; ethanol): over 300 fold | solubility ([3]; Solubility in DMSO): 250 mg/mL (≈ 415 mM) | solubility ([3]; Solubility in ethanol): ≥ 300 mg/mL | IC50 (518A2): 2.6 µM | IC50 (TC-71 (Ewing's sarcoma)): 5.5 µM | IC50 (SK-N-FI): 3.7 µM | IC50 (Hep-G2): 3.3 µM | Overall Survival (Soft tissue sarcoma): 15 months
